No end group written: not given here.
Columns and labels:
AMY3 receptor = target: T1, AMY3 receptor (Homo sapiens, UniProt O60896+P30988); test: Block of hAmylin-evoked cAMP generation in HEK-AMY3 cells; format: cell-based; details: peptide 30 min then hAmylin 1 pM–10 µM 30 min, peptides 10 µM (Fig. 1E legend), 1 µM (supplement method)
T1 construct: expressed in transfected cells
T1 sequence (P30988 25-474): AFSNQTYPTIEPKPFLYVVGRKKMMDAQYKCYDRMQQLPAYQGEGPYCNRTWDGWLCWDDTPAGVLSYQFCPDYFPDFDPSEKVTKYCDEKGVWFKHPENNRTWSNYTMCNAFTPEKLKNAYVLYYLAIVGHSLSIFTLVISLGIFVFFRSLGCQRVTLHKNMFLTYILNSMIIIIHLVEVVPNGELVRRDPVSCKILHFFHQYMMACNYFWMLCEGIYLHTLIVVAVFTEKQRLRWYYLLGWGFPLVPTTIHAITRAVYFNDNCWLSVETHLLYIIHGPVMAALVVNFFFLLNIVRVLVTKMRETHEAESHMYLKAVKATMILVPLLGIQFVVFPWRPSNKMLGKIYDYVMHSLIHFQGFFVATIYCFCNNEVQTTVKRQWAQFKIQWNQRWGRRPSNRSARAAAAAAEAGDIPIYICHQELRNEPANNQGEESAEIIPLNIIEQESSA
T1 sequence (O60896 24-148): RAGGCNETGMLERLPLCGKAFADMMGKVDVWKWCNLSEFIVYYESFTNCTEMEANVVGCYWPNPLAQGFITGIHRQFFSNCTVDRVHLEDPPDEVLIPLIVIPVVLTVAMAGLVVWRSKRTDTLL
Description: (§1) Human amylin is a potent agonist at amylin receptor stimulating cAMP production in cells. In the first in vitro bioassay, we examined ability of R5 and R14 to block the hAmylin-evoked cAMP generation in HEK-AMY3 cells. R11 peptide served as a negative control. […] In a second in vitro assay, we examined whether peptides R5, and R14 could protect human fetal neurons (HFNs) and N2a (mouse neuroblastoma cell line) from Αβ1–42 induced cytotoxicity.
(§2) A shorter peptide library was derived from AC253 peptide sequence comprising 12–14 amino acid peptides. […] To determine the activity of these shorter peptides to block AMY3 receptor signaling, cellular cAMP levels (measured using a parameter cyclic AMP assay kit, R&D Systems) and phosphorylation ERK1/2 (Western blot) were measured. We assessed neuroprotective properties of the peptide fragments against Aβ cytotoxicity in vitro using the MTT assay in N2a cell line and human fetal neurons (HFNs), which were prepared from 12- to 15-gestational week fetuses with approval of the Human Ethics Research Board at the University of Alberta as previously reported[17],[19].
For cAMP measurements, HEK-AMY3 cells were plated on 24-well plates overnight. […] Cellular cAMP levels were measured using a parameter cyclic AMP assay kit (R&D Systems) according to the manufacturer’s instructions. […]

[1] = tested on: ERK1/2 signaling pathway downstream of AMY3 receptor; test: hAmylin-evoked phosphoERK1/2 in HEK-AMY3 cells; format: cell-based; details: peptides 10 μM, hAmylin 1 μM, n = 3
Description: as §1, §2
Intracellular signaling profiles were determined using in-cell Western blot techniques as previously described ^8. […]

Substance | block of hAmylin-evoked cAMP increases (AMY3 receptor) | effect on increases in phosphoERK1/2 evoked by hAmylin [1]
LGRLSQELHRLQTYPRTNTGSNTY-NH2 (C-terminus assumed) [AC253, reference compound] | inhibited | reduce increases in phosphoERK1/2
SQELHRLQTYPR-NH2 [R5] | blocked the cAMP increases in a dose-dependent manner | reduce increases in phosphoERK1/2
